Reference: ChEMBL document CHEMBL1201862, “PubChem BioAssay data set” (2004)
Where “and” joins values, the source holds several entries; their conditions need not be identical. Equal values may be shown once.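 Values below derive from 48-hour exposures of cells grown in 96-well plates, with endpoints linearly interpolated between the two concentrations bracketing the appropriate inhibition level. GI50: concentration for 50% inhibition of growth.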 Calls of active or inactive are those of the source. Rule as the data show it: active = GI50 up to about 1.1 µM and inactive = higher.

Experiments:
Assay in all cases: NCI tumour cell line growth inhibition, 48 h
[1] = system: HCT-116
[2] = system: NCI-H23
[3] = system: SN12C
[4] = system: LXFL 529
[5] = system: UACC-62
[6] = system: U-251
[7] = system: COLO 205
[8] = system: SNB-78
[9] = system: TK-10
[10] = system: OVCAR-8
[11] = system: Malme-3M
[12] = system: KM-20L2
[13] = system: CCRF-CEM
[14] = system: M19-MEL
[15] = system: UO-31
[16] = system: SNB-19
[17] = system: RXF 631
[18] = system: SF-539
[19] = system: HL-60
[20] = system: K562
[21] = system: HT-29
[22] = system: KM12
[23] = system: NCI-H460
[24] = system: UACC-257
[25] = system: 786-0
[26] = system: NCI-H522
[27] = system: SK-MEL-28
[28] = system: EKVX
[29] = system: IGROV-1
[30] = system: OVCAR-3
[31] = system: XF498
[32] = system: SNB-75
[33] = system: LOX IMVI
[34] = system: SW-620
[35] = system: M14
[36] = system: OVCAR-5
[37] = system: RPMI-8226
[38] = system: OVCAR-4
[39] = system: SF-268
[40] = system: RXF 393
[41] = system: SR
[42] = system: HOP-18
[43] = system: ACHN
[44] = system: A498
[45] = system: HCC 2998
[46] = system: HOP-92
[47] = system: DLD-1
[48] = system: SK-OV-3
[49] = system: HCT-15
[50] = system: HOP-62
[51] = system: DMS-273
[52] = system: SK-MEL-2
[53] = system: DMS-114
[54] = system: MOLT-4
[55] = system: A549
[56] = system: CAKI-1
[57] = system: NCI-H226
[58] = system: SK-MEL-5
[59] = system: PC-3
[60] = system: MDA-N
[61] = system: MCF7
[62] = system: Hs-578T
[63] = system: NCI/ADR-RES
[64] = system: DU-145
[65] = system: T47D
[66] = system: SF-295
[67] = system: MDA-MB-231
[68] = system: BT-549
[69] = system: MDA-MB-435

Q: `O=C1C=C(Nc2ccccc2C(=O)CC(=O)C(=O)Nc2ccc(Cl)cc2)c2ccccc2C1=O` was tested. Which GI50 [1] did it give?
A: 6.18 µM (inactive)

Q: What about the GI50 [2] of the same molecule?
A: 9.91 µM (inactive)

Q: What about the GI50 [3] of the same molecule?
A: 12.6 µM (inactive)

Q: What about the GI50 [4] of the same molecule?
A: 7.52 µM (inactive)

Q: What about the GI50 [5] of the same molecule?
A: 13.3 µM (inactive)

Q: What about the GI50 [6] of the same molecule?
A: 20.1 µM (inactive)

Q: What about the GI50 [7] of the same molecule?
A: 17.9 µM (inactive)

Q: And the GI50 [8]?
A: 6.37 µM (inactive)

Q: What about the GI50 [9] of the same molecule?
A: > 74.5 µM (inactive)

Q: What about the GI50 [10] of the same molecule?
A: 6.59 µM (inactive)

Q: And the GI50 [11]?
A: 11.8 µM (inactive)

Q: And the GI50 [12]?
A: > 55.2 µM (inactive)

Q: And the GI50 [13]?
A: 3.59 µM (inactive)

Q: What about the GI50 [14] of the same molecule?
A: 1.95 µM (inactive)

Q: And the GI50 [15]?
A: 14.7 µM (inactive)

Q: What about the GI50 [16] of the same molecule?
A: 14 µM (inactive)

Q: And the GI50 [17]?
A: 30 µM (inactive)

Q: And the GI50 [18]?
A: 20.1 µM (inactive)

Q: What about the GI50 [19] of the same molecule?
A: 3.32 µM (inactive)

Q: And the GI50 [20]?
A: 3.24 µM (inactive)

Q: What about the GI50 [21] of the same molecule?
A: 41.5 µM (inactive)

Q: What about the GI50 [22] of the same molecule?
A: 14.6 µM (inactive)

Q: What about the GI50 [23] of the same molecule?
A: 16.3 µM (inactive)

Q: What about the GI50 [24] of the same molecule?
A: 8.83 µM (inactive)

Q: And the GI50 [25]?
A: 16.3 µM (inactive)

Q: What about the GI50 [26] of the same molecule?
A: 7.85 µM (inactive)

Q: What about the GI50 [27] of the same molecule?
A: 16.7 µM (inactive)

Q: What about the GI50 [28] of the same molecule?
A: 32.4 µM (inactive)

Q: What about the GI50 [29] of the same molecule?
A: 27.4 µM (inactive)

Q: And the GI50 [30]?
A: 2.39 µM (inactive)

Q: And the GI50 [31]?
A: 13.7 µM (inactive)

Q: What about the GI50 [32] of the same molecule?
A: 17.1 µM (inactive)

Q: And the GI50 [33]?
A: 1.93 µM (inactive)

Q: What about the GI50 [34] of the same molecule?
A: 7.11 µM (inactive)

Q: And the GI50 [35]?
A: 10.9 µM (inactive)

Q: What about the GI50 [36] of the same molecule?
A: 19.6 µM (inactive)

Q: What about the GI50 [37] of the same molecule?
A: 3.21 µM (inactive)

Q: And the GI50 [38]?
A: 10.9 µM (inactive)

Q: What about the GI50 [39] of the same molecule?
A: 14.2 µM (inactive)

Q: What about the GI50 [40] of the same molecule?
A: 11.5 µM (inactive)

Q: And the GI50 [41]?
A: > 100 µM (inactive)

Q: What about the GI50 [42] of the same molecule?
A: 0.594 µM (active)

Q: And the GI50 [43]?
A: 18.2 µM (inactive)

Q: And the GI50 [44]?
A: > 100 µM (inactive)

Q: What about the GI50 [45] of the same molecule?
A: 17.5 µM (inactive)

Q: What about the GI50 [46] of the same molecule?
A: 21.9 µM (inactive)

Q: And the GI50 [47]?
A: 5.56 µM (inactive)

Q: What about the GI50 [48] of the same molecule?
A: 26.2 µM (inactive)

Q: And the GI50 [49]?
A: 10.6 µM

Q: What about the GI50 [50] of the same molecule?
A: 17.7 µM (inactive)

Q: And the GI50 [51]?
A: 13.8 µM (inactive)

Q: What about the GI50 [52] of the same molecule?
A: 17.2 µM (inactive)

Q: And the GI50 [53]?
A: 3.64 µM (inactive)

Q: What about the GI50 [54] of the same molecule?
A: 5.05 µM (inactive)

Q: And the GI50 [55]?
A: 14.4 µM (inactive)

Q: What about the GI50 [56] of the same molecule?
A: 29.8 µM (inactive)

Q: What about the GI50 [57] of the same molecule?
A: 24.4 µM (inactive)

Q: What about the GI50 [58] of the same molecule?
A: 4.32 µM (inactive)

Q: Which results are given for `COc1cccc2c1C(=O)c1c(O)c3c(c(O)c1C2=O)C[C@@](O)(C(C)=O)C[C@@H]3OC1CC(N)C(O)C(C)O1` (stereo partly specified)?
A: GI50 [59]: 48 nM (active) and 78.9 nM (active); GI50 [4]: 0.0743 µM (active); GI50 [7]: 156 nM (active) and 142 nM (active); GI50 [8]: 0.292 µM (active); GI50 [60]: 168 nM (active) and 98.9 nM (active); GI50 [11]: 30.3 nM (active) and 54.3 nM (active); GI50 [12]: 0.194 µM (active); GI50 [13]: < 10 nM (active) and 12.8 nM (active); GI50 [14]: 0.08 µM (active); GI50 [15]: 412 nM (active) and 413 nM (active); GI50 [17]: 0.115 µM (active); GI50 [18]: 39.1 nM (active) and 48.3 nM (active); GI50 [19]: < 11.4 nM (active) and 12.3 nM (active); GI50 [23]: < 10 nM (active) and 5.94 nM (active); GI50 [61]: 0.00889 µM (active); GI50 [25]: < 17.8 nM (active) and 32.6 nM (active); GI50 [27]: 167 nM (active) and 303 nM (active); GI50 [31]: 0.069 µM (active); GI50 [33]: < 13.1 nM (active) and 24.9 nM (active); GI50 [34]: < 16.7 nM (active) and 22.9 nM (active); GI50 [36]: 201 nM (active) and 238 nM (active); GI50 [62]: 168 nM (active) and 192 nM (active); GI50 [41]: 8.39 nM (active) and < 13.5 nM (active); GI50 [42]: 0.118 µM (active); GI50 [44]: 146 nM (active) and 197 nM (active); GI50 [45]: 154 nM (active) and 167 nM (active); GI50 [47]: 0.309 µM (active); GI50 [49]: 0.721 µM and 0.689 µM; GI50 [51]: 0.0889 µM (active); GI50 [53]: 0.0371 µM (active); GI50 [54]: < 10 nM (active) and 6.34 nM (active); GI50 [56]: 81.8 nM (active) and 99.1 nM (active); GI50 [57]: 24 nM (active) and 34.6 nM (active); GI50 [63]: 2.42 µM (inactive) and 4.61 µM (inactive)

Q: What does the source list for `CCN(CC)CCNc1ccc2nnn3c4ccc([N+](=O)[O-])cc4c(=O)c1c23`?
A: GI50 [1]: 3.55 µM (inactive); GI50 [2]: 10.8 µM (inactive); GI50 [59]: 5.26 µM (inactive); GI50 [3]: 7.05 µM (inactive); GI50 [4]: 4.98 µM (inactive); GI50 [5]: > 36.4 µM (inactive); GI50 [6]: 5.21 µM (inactive); GI50 [7]: 4.85 µM (inactive); GI50 [64]: 7.69 µM (inactive); GI50 [65]: > 100 µM (inactive); GI50 [8]: 9.71 µM (inactive); GI50 [9]: 11.6 µM (inactive); GI50 [10]: 4.76 µM (inactive); GI50 [60]: 71.8 µM (inactive); GI50 [11]: 9.12 µM (inactive); GI50 [12]: 4.94 µM (inactive); GI50 [13]: 4.91 µM (inactive); GI50 [14]: > 20.5 µM (inactive); GI50 [66]: 5.82 µM (inactive); GI50 [15]: 3.44 µM (inactive); GI50 [16]: 6.43 µM (inactive); GI50 [17]: 4.11 µM (inactive); GI50 [18]: 3.35 µM (inactive); GI50 [19]: 6.52 µM (inactive); GI50 [20]: 6.7 µM (inactive); GI50 [21]: 3.89 µM (inactive); GI50 [22]: 6.28 µM (inactive); GI50 [23]: 3.93 µM (inactive); GI50 [61]: 3.67 µM (inactive); GI50 [67]: 3.94 µM (inactive); GI50 [24]: 10 µM (inactive); GI50 [68]: > 100 µM (inactive); GI50 [25]: 4.34 µM (inactive); GI50 [26]: 8.15 µM (inactive); GI50 [27]: 14 µM (inactive); GI50 [28]: 14.1 µM (inactive); GI50 [29]: 5.38 µM (inactive); GI50 [30]: > 79.6 µM (inactive); GI50 [31]: 6.25 µM (inactive); GI50 [32]: 4.91 µM (inactive); GI50 [33]: 4.58 µM (inactive); GI50 [34]: 3 µM (inactive); GI50 [35]: 11.8 µM (inactive); GI50 [36]: 13.2 µM (inactive); GI50 [37]: 6.15 µM (inactive); GI50 [38]: 9.18 µM (inactive); GI50 [39]: 6.37 µM (inactive); GI50 [40]: 4.78 µM (inactive); GI50 [62]: 14.1 µM (inactive); GI50 [41]: 5.01 µM (inactive); GI50 [42]: 2.8 µM (inactive); GI50 [43]: 3.28 µM (inactive); GI50 [44]: 6.3 µM (inactive); GI50 [45]: 25.8 µM (inactive); GI50 [46]: 11.3 µM (inactive); GI50 [47]: 3.93 µM (inactive); GI50 [48]: > 37.6 µM (inactive); GI50 [49]: 6.93 µM; GI50 [69]: > 100 µM (inactive); GI50 [50]: 2.28 µM (inactive); GI50 [51]: 5.16 µM (inactive); GI50 [52]: 9.75 µM (inactive); GI50 [53]: 8.53 µM (inactive); GI50 [54]: 2.13 µM (inactive); GI50 [55]: 4.47 µM (inactive); GI50 [56]: 4.14 µM (inactive); GI50 [57]: 3.34 µM (inactive); GI50 [63]: 7.16 µM (inactive); GI50 [58]: 3.62 µM (inactive)
